Results reported in publication PMC2851405 (Biochemistry, 2010).

Target: HPAO-1 (Ogataea angusta, UniProt P12807)
Assay: phenylhydrazone formation, absorbance
Format: binding
Conditions: covalent; adduct with TPQ cofactor

Sequence of HPAO-1 (P12807 whole entry): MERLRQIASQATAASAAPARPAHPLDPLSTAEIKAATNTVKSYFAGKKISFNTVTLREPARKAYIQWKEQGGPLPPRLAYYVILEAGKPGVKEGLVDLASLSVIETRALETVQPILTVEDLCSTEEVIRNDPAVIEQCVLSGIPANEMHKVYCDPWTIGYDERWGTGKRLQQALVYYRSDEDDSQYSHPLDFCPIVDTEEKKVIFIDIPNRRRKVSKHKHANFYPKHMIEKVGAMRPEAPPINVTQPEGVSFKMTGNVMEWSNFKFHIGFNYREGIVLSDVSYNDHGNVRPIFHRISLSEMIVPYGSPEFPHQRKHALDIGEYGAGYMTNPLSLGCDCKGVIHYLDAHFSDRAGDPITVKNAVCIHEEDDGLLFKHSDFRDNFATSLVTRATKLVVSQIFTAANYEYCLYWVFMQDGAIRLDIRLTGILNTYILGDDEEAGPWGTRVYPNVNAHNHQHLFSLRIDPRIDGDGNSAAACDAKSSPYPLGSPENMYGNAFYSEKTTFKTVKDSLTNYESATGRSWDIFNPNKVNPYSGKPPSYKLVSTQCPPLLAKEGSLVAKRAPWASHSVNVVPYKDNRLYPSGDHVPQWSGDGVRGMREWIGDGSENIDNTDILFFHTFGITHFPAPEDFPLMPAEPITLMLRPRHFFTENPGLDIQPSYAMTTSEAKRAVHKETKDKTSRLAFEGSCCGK

NNc1ccccc1 [phenylhydrazine]
rate of phenylhydrazone formation: 0.0078 ± 0.0007 s⁻¹
